Measured values published in patent publication US8394781B2, “Disaccharides for the treatment of tendons, ligaments, and bones” (Bioiberica, S.A., priority 2007, dated 2013).

Test system: human tenocytes
Experiment: Human tenocyte adhesion and proliferation, in vitro culture, manual count in ten microscopic fields
Format: cell-based
Conditions: IGF-1 10 ng/mL, same increase reached after 9 hours, FIG. 2
Experimental: The objective was to determine the effect of compound Ic on human tenocyte proliferation and adhesion in an in vitro culture model, since a drug stimulating tenocyte proliferation and adhesion could be especially useful in the treatment or repair of tendons.
For comparison purposes, the effect of the growth factor IGF-1 on human tenocyte proliferation and adhesion in the same type of in vitro culture model was determined.
The increase of adhered tenocytes was quantified by means of manual count in ten microscopic fields.
Human tendon explants (of approximately 3-5 mm) were cultured in a culture flask with culture medium formed by 10% FCS, DMEM/Ham-12 (50/50) (Dulbecco's Modified Eagle's Medium with Ham-12), 50 IU/mL of penicillin/streptomycin, […] of ascorbic acid, 2.5 μg/mL of amphotericin B, 1% glutamine and 1% essential amino acids. […]
Twelve-well plates were prepared with 15,000 tenocytes/well and they were incubated with 10% FCS (fetal calf serum). On the following day, the cells were washed three times with serum-free culture medium (0.5% FCS) and were incubated for 30 minutes with serum-free culture medium, after which the control cultures were counted (time “0 hours”). […]
In all the assays, the cells were incubated for 71 hours and each well was evaluated in each time period by means of a manual count in 10 microscopic fields. […]

Substance: IGF-1: growth factor IGF-1 (Insulin-like Growth Factor 1), used for comparison at 10 ng/mL
- increase in the number of adhered tenocytes with respect to the control: ~45%
